In US20100260671A1, “COMPOUNDS AND METHODS FOR THE DIAGNOSIS AND TREATMENT OF AMYLOID ASSOCIATED DISEASES” (THE REGENTS OF THE UNIVERSITY OF CALIFORNIA, priority 2007, published 2010):
Entries after “also recorded” stand apart in the source; their conditions may differ.

What was measured:
[1] = Octanol/PBS partition coefficient (log P), experimental; conditions: for logP: octanol/PBS buffer
Method: (§1) 15 μM solutions of small molecule are prepared in 5 mL PBS buffer. 5 mL of octanol is added to each aqueous solution of small molecule and the biphasic layers are mixed by rapid vortexing. The mixture is then centrifuged at 250×g to facilitate the formation of two clear layers. The layers are separated and the absolute concentrations of small molecules in each layer are quantified by measuring the absorbance of the layers at the appropriate nm for each compound. The molar extinction coefficient of the compound in octanol and PBS buffer is determined by comparison to standard calibration curves of known quantities of small molecules dissolved in octanol and PBS buffer. The partition coefficient is expressed as logarithm of the ratio of the concentration in octanol divided by the concentration in PBS (i.e., log P).

Aβ fibrils (anti-Aβ IgG) = Aβ fibrils (anti-Aβ IgG) (Homo sapiens, UniProt P05067); conditions: for Emax: read-out: % Max Inhib.
Chain of Aβ fibrils (anti-Aβ IgG) (P05067 672-713 limits assumed): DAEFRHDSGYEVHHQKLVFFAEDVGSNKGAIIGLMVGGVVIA

Aβ(1-42) ion channels = target: T1, Aβ(1-42) ion channels (Homo sapiens, UniProt P05067); experiment: Functional ion channel inhibition assay, planar lipid bilayer (Example 7); format: biochemical; conditions: for Rank of inhibitory effect on Aβ ion channel activity: repeated experiments; for Inhibition of de-novo Aβ ion channel formation: molar ratio to Aβ 1:1, added at the same time as 37 μM Aβ
T1 construct: Aβ(1-42) (Biopeptides) was initially dissolved in deionized water at 1 mg/ml (221.5 μM); purchased Biopeptide, Inc.
T1 sequence (P05067 672-713 limits assumed): as above
Excerpt: Functional Ion Channel Inhibition Assays: A functional assay has been developed to investigate the inhibition of neurotoxic ion channel activity of Aβ peptides in reconstituted membrane bilayers and in aneuronal cell line by small molecules. The assay is based on ultra-sensitive electrophysiological recordings of the ion channel activity of Aβ. This ion channel-activity assay is designed to determine whether small molecules that bind to Aβ fibrils will inhibit ion channel activity. Compounds that inhibit ion channel activity are likely candidates for therapeutics and diagnostic agents for amyloid-associated diseases. This Example presents results that nicotine, tannic acid, and Congo Red are able to inhibit the ion channel activity of Aβ oligomers in planar lipid bilayers.
1. The lipid mixture was made from POPE:POPG (Avanti Polar Lipids) at 25 mg/ml (1:1) in Heptane. The pretreatment lipid solution was POPE:POPG 20 mg/mL in Hexane.
2. The bilayer was formed in classic bilayer cups and chamber (Warner Instruments). This 2-part system consists of a black Delrin chamber and a cup of Delrin. Cups and chambers are designed such that addition of equal volumes to the cup and chamber (cis and trans sides) results in a balanced solution height, minimizing any pressure gradients across the bilayer membrane.
3. The bilayer was formed over a 250 μm hole in a partition separating two Delrin compartments, the so called “painting technique.” First, droplets of pretreatment lipid solution were placed on both sides of the hole, using 100 uL-Hamilton syringe. Once the droplet of hexane evaporates, both chambers (cis and trans) were symmetrically filled with 900 uL of buffer solution, 100 mM KH2PO4/K2HPO4 pH 7.4, at room temperature.
4. When the bilayer set-up was already in place with Ag/AgCl electrodes in Faraday cage (a bilayer workstation which provides critical shielding of electromagnetic interference from outside sources and isolate vibration), the lipid solution (POPE:POPG in Heptane) was painted directly over the hole by using a thin paintbrush. A researcher gently blew underneath the hole by using the Pasteur pipette to thin out the bilayer until the appropriate capacitance was obtained (80-120 pF).
5. A voltage of ±100 mV was applied for at least 10 minutes to test stability of lipid bilayer.
Aβ(1-42) (Biopeptides) was initially dissolved in deionized water at 1 mg/ml (221.5 μM), and stored at −20° C. The stock solution is aliquotted to sufficient amount for each time use (90 uL). After the stable bilayer is constituted, the Aβ(1-42) solution was added to the trans side of the chamber to obtain a final concentration of 37 μM. The solution was mixed well in the chamber under stirring for 5 minutes
Congo Red (Sigma) was dissolved in DI Water to achieve a concentration of 2.5 mg/ml (3.58 mM) as a stock solution. (−) Nicotine Hemasulfate (Sigma) was diluted to 1.89 mM in DI Water. Tannic Acid (Riedel-de Haen) was diluted to 20 mM in DI Water.
The solution of inhibitory molecule was added to cis and trans sides to make a desired final concentration (1:1 molar ratio) at the same time as Aβ.
For Nicotine, the solution was added after observing current activities of Aβ to obtain 1:1, 1:2, 1:3, 1:4 molar ratio.

[2] = target: T2, Aβ(1-40) ion channel activity (Homo sapiens, UniProt P05067); experiment: Planar lipid bilayer Aβ ion channel assay, Method 2 (POPE:DOPS, Aβ proteoliposomes); format: biochemical; conditions: for Small molecule concentration at which no ion channel activity is observed: Method 2, added after observing events
T2 construct: Aβ(1-40) (Biopeptide, Inc.) powder was initially solubilized lyophilized in DiH2O at 1 mg/mL; purchased Biopeptide, Inc
T2 sequence (P05067 672-711 limits assumed): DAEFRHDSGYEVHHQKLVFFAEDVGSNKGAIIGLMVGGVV
Method: Method 2: Planar lipid bilayer was formed by the so-called “painting technique” over a 250-μm aperture on a Delrin cup (Warner Instruments) separating two compartments (cis and trans) of a bilayer setup. A lipid mixture of 1-palmitoyl-2-oleoyl phosphatidyletanolamine (POPE) (Avanti Polar Lipids) and Dioleoylphosphatidylserine (DOPS) (Avanti Polar Lipids), 1:1 at 10 mg mL-1 in heptane was applied on the aperture which is pre-treated with 2 μL of the same lipid mixture in hexane on each side. Both compartments were filled symmetrically with 800 μL of 70 mM KCl, […]. A glass pipette with a smooth bent tip was used to blow air bubble under the aperture to thin out the droplet of lipid to obtain a planar lipid bilayer (with capacitance >80 pF). Membrane stability was determined by applying ±100 mV for 10 minutes and monitoring a constant current baseline without instabilities in current. The capacitance of the membrane was monitored throughout the experiment.
Monomerization of Aβ: Aβ powder (Biopeptide, Inc.) was initially solubilized in Hexafluoroisopropanol (HFIP) at 1 mM for 21 hours in a glass vial, with 3 times of vortexing throughout the incubation period. The solution was diluted with cold nanopure water (2:1 H2O:HFIP) vortexed, fractionated in desire amounts, and immediately frozon in a CO2/acetone bath. Each fraction was covered with parafilm that was punctured twice to allow solvent vapors to escape. The fractions were lyophilized for 2 days to obtain monomerized Aβ.
Preparation of Aβ proteoliposomes: Aβ(1-40) (Biopeptide, Inc.) powder was initially solubilized lyophilized in DiH2O at 1 mg/mL and stored in −80° C. before use. 20 μL of DOPS was evaporated in CHCl3 (10 mg mL^−1) under vacuum and formed liposomes using hydration method. After obtaining a thin film of lipid, 30 μL of 1M Potassium Aspartate pH 7.2 was added, followed by 5 minutes of bath sonication. The liposome suspension was then mixed with 20 μL of Aβ (1-40) solution (1 mg/mL) and sonicated for 5 minutes.
In order to promote fusion of Aβ proteoliposomes into the bilayer, an ionic gradient of 370 mM KCl was used on the cis side (the side of proteoliposome addition) and 70 mM KCl on the trans side of the bilayer setup. 10-20 μL of the Aβ proteoliposome solution was added to the cis compartment and stirred vigorously for 5-10 minutes. The molecules of interest can be tested by addition to the chamber after observing events.

[3] = target: T3, Aβ(1-42) ion channel activity (Homo sapiens, UniProt P05067); experiment: Planar lipid bilayer Aβ ion channel assay, Method 1 (POPE:POPG, pre-incubated Aβ); format: biochemical; conditions: for membrane lasts: Method 1, incubated at 4:1 with Aβ, average of experiments
T3 construct: Aβ(1-42) (Biopeptides) was initially dissolved in deionized water at 1 mg/ml (221.5 μM); purchased Biopeptide, Inc.
T3 sequence (P05067 672-713 limits assumed): as the sequence (P05067 672-713 limits assumed) above
Method: […] The Aβ sample was pre-incubated at RT for 12-18 hours. The molecules of interest can be pre-incubated with Aβ sample at various concentrations.
Bilayer set-up and recording system: Planar lipid bilayer was formed by the so-called “painting technique” over a 250-μm aperture on a Delrin cup (Warner Instruments) separating two compartments (cis and trans) of a bilayer setup. A lipid mixture of 1-palmitoyl-2-oleoyl phosphatidyletanolamine (POPE): palmitoyl-oleyl-phosphatidylglycerol (POPG) (Avanti Polar Lipids), 1:1 at 25 mg mL-1 in heptane was applied to the aperture which is pre-treated with 2 μL of the same lipid mixture (20 mg mL^−1) in hexane on each side. The recording buffer in cis compartment is 100 mM K2HPO4/KH2PO4 pH 7.4, while in the trans compartment a buffer with pre-incubated Aβ overnight was used.

[4] = target: Aβ fibrils (binding of anti-Aβ IgG clone 6E10) (Homo sapiens, UniProt P05067); experiment: ELISA-based assay: inhibition of anti-Aβ IgG (clone 6E10) binding to Aβ fibrils; conditions: control experiments, FIG. 2 panel c
Chain of Aβ fibrils (binding of anti-Aβ IgG clone 6E10) (P05067 672-713 limits assumed): as above

Method for physchem: as §1

CN1CCCC1COC(=O)c1ccccn1 (stereo not shown) [Compound 15, (s)-1-Methylpyrrolidine-2-methyl picolinate]
logP [1]: 0.69 ± 0.08 | Conc at Max Inhib. (Aβ fibrils (anti-Aβ IgG); anti-Aβ IgG-Aβ fibril binding): 50 mM | Emax (Aβ fibrils (anti-Aβ IgG)): 51%

CN1CCC[C@H]1COC(=O)c1cncc(Br)c1 [Compound 14]
Conc at Max Inhib. (Aβ fibrils (anti-Aβ IgG); anti-Aβ IgG-Aβ fibril binding): 50 mM | Emax (Aβ fibrils (anti-Aβ IgG)): 68%

Nc1c(/N=N/c2ccc(-c3ccc(/N=N/c4cc(S(=O)(=O)O)c5ccccc5c4N)cc3)cc2)cc(S(=O)(=O)O)c2ccccc12 [Congo Red]
Rank of inhibitory effect on Aβ ion channel activity (Aβ(1-42) ion channels): then by Congo Red

NC[C@H](O)c1ccc(O)c(O)c1.O.O=C(O)C(O)C(O)C(=O)O [L-(−)-norepinephrine (+)-bitartrate salt monohydrate]
Small molecule concentration at which no ion channel activity is observed [2]: Observe no ion channel activity at 50 μM small

O=C([O-])c1ccccc1O.[Na+] [Salicylic Acid sodium salt]
Observe no ion channel activity in (experiments out of total) ([3]; Method 1, incubated at 4:1): Observe no ion channel activity in 3 out of 3 | membrane lasts [3]: (incubated at 4:1), membrane lasts ~45 minutes

OCCOCCOCCOCCN1CCCC1c1cccnc1 (stereo not shown) [Compound 10, 2-(2-(2-(2-(2-(pyridin-3yl)pyrrolidin-1-yl)ethoxy)ethoxy)ethoxy)-ethanol]
logP [1]: -0.41 ± 0.05 | Conc at Max Inhib. (Aβ fibrils (anti-Aβ IgG); anti-Aβ IgG-Aβ fibril binding): 100 mM | Emax (Aβ fibrils (anti-Aβ IgG)): 81%

N[C@@H](Cc1ccc(O)c(O)c1)C(=O)O [L-DOPA]
Membrane observation ([2]; Method 2, 50 μM small molecule): molecule, membrane broke | Small molecule concentration at which no ion channel activity is observed [2]: Observe no ion channel activity at 50 μM small

CNCCc1ccc(O)c(O)c1.Cl [N-methyl dopamine hydrochloride]
Small molecule concentration at which no ion channel activity is observed [2]: Observe no ion channel activity at 450 μM small

O=S(=O)([O-])c1ccc(O)c2ccccc12.[Na+] [1-naphthol-4-sulfonate]
Inhibition of the interaction between the IgGs and Aβ fibrils (control compound) [4]: No inhibition

COc1cc(/C=C/C(=O)CC(=O)/C=C/c2ccc(O)c(OC)c2)ccc1O [Curcumin]
Observe no ion channel activity in (experiments out of total) ([3]; Method 1, incubated at 2:1): Observe no ion channel activity in 3 out of 6 | membrane lasts / membrane stability ([3]; Method 1, incubated at 2:1): (incubated at 2:1), membrane lasts ~50 minutes

Cl.NCCc1ccc(O)c(O)c1 [Dopamine HCl]
Observe no ion channel activity in (experiments out of total) ([3]; Method 1, incubated at 4:1): Observe no ion channel activity in 3 out of 4 | membrane lasts [3]: (incubated at 4:1), membrane lasts ~70 minutes

CN1CCCC1c1cccnc1 (single isomer, unassigned; (-)) [(−)-Nicotine]
membrane lasts / membrane stability ([3]; Method 1, incubated at 2:1): (incubated at 2:1), unstable membrane | Observe no ion channel activity in (experiments out of total) ([3]; Method 1, incubated at 4:1): Observe no ion channel activity in 4 out of 4 | membrane lasts [3]: (incubated at 4:1), membrane lasts ~70 minutes | Time to almost complete disruption of preformed ion channels (Aβ(1-42) ion channels; 4-fold molar excess with respect to Aβ): ≤ 10 min | Disruption of Aβ ion channel activity on addition at increasing concentration (Aβ(1-42) ion channels; added after observing Aβ current, 1:1 to 1:4 molar ratio, 37 μM Aβ): concentration-dependent disruption of Aβ ion channel activity | Disruption of preformed Aβ ion channels (Aβ(1-42) ion channels; molar ratio nicotine to Aβ 4:1): disrupted preformed Aβ channels almost completely | Inhibition of de-novo Aβ ion channel formation (Aβ(1-42) ion channels): sufficient to inhibit the de-novo formation of Aβ ion channels; also recorded: did not result in ion channel activity during the entire test period (90 min) | Rank of inhibitory effect on Aβ ion channel activity (Aβ(1-42) ion channels): strongest inhibitory effect | LogP expt'l ([1]; octanol/PBS): 0.20 ± 0.01 | % Max Inhib. (Aβ fibrils (anti-Aβ IgG); anti-Aβ IgG-Aβ fibril binding): 84% | Conc at Max Inhib. (Aβ fibrils (anti-Aβ IgG); anti-Aβ IgG-Aβ fibril binding): 1,000 mM

O=C(OC[C@H]1O[C@@H](OC(=O)c2cc(O)c(O)c(OC(=O)c3cc(O)c(O)c(O)c3)c2)[C@H](OC(=O)c2cc(O)c(O)c(OC(=O)c3cc(O)c(O)c(O)c3)c2)[C@@H](OC(=O)c2cc(O)c(O)c(OC(=O)c3cc(O)c(O)c(O)c3)c2)[C@@H]1OC(=O)c1cc(O)c(O)c(OC(=O)c2cc(O)c(O)c(O)c2)c1)c1cc(O)c(O)c(OC(=O)c2cc(O)c(O)c(O)c2)c1 [Tannic Acid]
Observe no ion channel activity in (experiments out of total) ([3]; Method 1, incubated at 4:1): Observe no ion channel activity in 3 out of 5 | membrane lasts [3]: (incubated at 4:1), membrane lasts ~75 minutes | Inhibition of de-novo Aβ ion channel formation (Aβ(1-42) ion channels): inhibited ion channel activity of Aβ

CN1CCC[C@H]1COC(=O)c1cccnc1 [Compound 13, (s)-1-Methylpyrrolidine-2-methyl nicotinate]
logP [1]: -0.5 ± 0.02 | Conc at Max Inhib. (Aβ fibrils (anti-Aβ IgG); anti-Aβ IgG-Aβ fibril binding): 50 mM | Emax (Aβ fibrils (anti-Aβ IgG)): 54%

CN1CCCC1c1cncc(Br)c1 (stereo not shown) [Compound 8, 5-Bromonicotine]
logP (physchem): 2.1 ± 0.3 | Conc at Max Inhib. (Aβ fibrils (anti-Aβ IgG); anti-Aβ IgG-Aβ fibril binding): 700 mM | Emax (Aβ fibrils (anti-Aβ IgG)): 83%

c1cncc(C2CCCN2)c1 (stereo not shown) [Compound 7, Nornicotine]
logP [1]: -0.93 ± 0.04 | Conc at Max Inhib. (Aβ fibrils (anti-Aβ IgG); anti-Aβ IgG-Aβ fibril binding): 700 mM | Emax (Aβ fibrils (anti-Aβ IgG)): 98%
